Patent US11679111B2, “Fatty acid synthase inhibitors” (priority 2016, dated 2023)

Tests used:
[1] = tested on: MMTV-Neu model of HER2+ breast cancer; experiment: Efficacy in MMTV-Neu model of HER2+ breast cancer; format: in vivo, mice; conditions: 30 pmol/kg IP biweekly, vehicle 29 days
in vivo = conditions: MMTV-Neu, mouse, 15 mg/kg, n=3
FASN = biological target: T1, FASN (Sus scrofa, UniProt A5YV76); experiment: FLECS screen, elution of fluorescein labeled proteins from Cibacron blue resin; format: binding, porcine; conditions: SDS-PAGE and mass spectrometry
T1 construct: from tissue; host or cells: lactating porcine mammary gland extract
Source text: To specifically identify inhibitors of FASN targeting its nucleotide binding pockets Cibacron blue Sepharose was utilized. This medium has been used previously to purify NAD and NADP binding proteins from crude tissues extracts (Miyaguchi et al., 2011; Muratsubaki et al., 1994). FASN enriched extract from lactating pig mammary gland was bound to the resin and labeled with cysteine reactive fluorescein. […] One hundred and fifty-five of the molecules selectively eluted FASN from the resin, and 20 potential lead compounds were progressed according to their FASN selectivity (assessed with SDS-PAGE, silver staining and mass spectrometry). These twenty compounds were reduced to 13 based on the absence of any obvious chemical liabilities. Next, the molecules were tested for their ability to inhibit FASN activity in a HepG2 cell based assay that measured the incorporation of ^3H glucose into lipids (FIG. 1B and FIG. 9).
Porcine mammary glands were collected from lactating pigs as previously described (Hughes et al., 2012). Tissues were homogenized in lysis buffer A (100 mM sodium fluoride, 5 mM EDTA, 1 mM DTT and 5% glycerol made in 10 mM sodium phosphate buffer pH 7.5) in a ratio of 3 ml of buffer per each gram of tissue. […] Fluorescence in each well was measured at Ex/Em: 485/535 nm. […]

T1 sequence (A5YV76 entry or part of it): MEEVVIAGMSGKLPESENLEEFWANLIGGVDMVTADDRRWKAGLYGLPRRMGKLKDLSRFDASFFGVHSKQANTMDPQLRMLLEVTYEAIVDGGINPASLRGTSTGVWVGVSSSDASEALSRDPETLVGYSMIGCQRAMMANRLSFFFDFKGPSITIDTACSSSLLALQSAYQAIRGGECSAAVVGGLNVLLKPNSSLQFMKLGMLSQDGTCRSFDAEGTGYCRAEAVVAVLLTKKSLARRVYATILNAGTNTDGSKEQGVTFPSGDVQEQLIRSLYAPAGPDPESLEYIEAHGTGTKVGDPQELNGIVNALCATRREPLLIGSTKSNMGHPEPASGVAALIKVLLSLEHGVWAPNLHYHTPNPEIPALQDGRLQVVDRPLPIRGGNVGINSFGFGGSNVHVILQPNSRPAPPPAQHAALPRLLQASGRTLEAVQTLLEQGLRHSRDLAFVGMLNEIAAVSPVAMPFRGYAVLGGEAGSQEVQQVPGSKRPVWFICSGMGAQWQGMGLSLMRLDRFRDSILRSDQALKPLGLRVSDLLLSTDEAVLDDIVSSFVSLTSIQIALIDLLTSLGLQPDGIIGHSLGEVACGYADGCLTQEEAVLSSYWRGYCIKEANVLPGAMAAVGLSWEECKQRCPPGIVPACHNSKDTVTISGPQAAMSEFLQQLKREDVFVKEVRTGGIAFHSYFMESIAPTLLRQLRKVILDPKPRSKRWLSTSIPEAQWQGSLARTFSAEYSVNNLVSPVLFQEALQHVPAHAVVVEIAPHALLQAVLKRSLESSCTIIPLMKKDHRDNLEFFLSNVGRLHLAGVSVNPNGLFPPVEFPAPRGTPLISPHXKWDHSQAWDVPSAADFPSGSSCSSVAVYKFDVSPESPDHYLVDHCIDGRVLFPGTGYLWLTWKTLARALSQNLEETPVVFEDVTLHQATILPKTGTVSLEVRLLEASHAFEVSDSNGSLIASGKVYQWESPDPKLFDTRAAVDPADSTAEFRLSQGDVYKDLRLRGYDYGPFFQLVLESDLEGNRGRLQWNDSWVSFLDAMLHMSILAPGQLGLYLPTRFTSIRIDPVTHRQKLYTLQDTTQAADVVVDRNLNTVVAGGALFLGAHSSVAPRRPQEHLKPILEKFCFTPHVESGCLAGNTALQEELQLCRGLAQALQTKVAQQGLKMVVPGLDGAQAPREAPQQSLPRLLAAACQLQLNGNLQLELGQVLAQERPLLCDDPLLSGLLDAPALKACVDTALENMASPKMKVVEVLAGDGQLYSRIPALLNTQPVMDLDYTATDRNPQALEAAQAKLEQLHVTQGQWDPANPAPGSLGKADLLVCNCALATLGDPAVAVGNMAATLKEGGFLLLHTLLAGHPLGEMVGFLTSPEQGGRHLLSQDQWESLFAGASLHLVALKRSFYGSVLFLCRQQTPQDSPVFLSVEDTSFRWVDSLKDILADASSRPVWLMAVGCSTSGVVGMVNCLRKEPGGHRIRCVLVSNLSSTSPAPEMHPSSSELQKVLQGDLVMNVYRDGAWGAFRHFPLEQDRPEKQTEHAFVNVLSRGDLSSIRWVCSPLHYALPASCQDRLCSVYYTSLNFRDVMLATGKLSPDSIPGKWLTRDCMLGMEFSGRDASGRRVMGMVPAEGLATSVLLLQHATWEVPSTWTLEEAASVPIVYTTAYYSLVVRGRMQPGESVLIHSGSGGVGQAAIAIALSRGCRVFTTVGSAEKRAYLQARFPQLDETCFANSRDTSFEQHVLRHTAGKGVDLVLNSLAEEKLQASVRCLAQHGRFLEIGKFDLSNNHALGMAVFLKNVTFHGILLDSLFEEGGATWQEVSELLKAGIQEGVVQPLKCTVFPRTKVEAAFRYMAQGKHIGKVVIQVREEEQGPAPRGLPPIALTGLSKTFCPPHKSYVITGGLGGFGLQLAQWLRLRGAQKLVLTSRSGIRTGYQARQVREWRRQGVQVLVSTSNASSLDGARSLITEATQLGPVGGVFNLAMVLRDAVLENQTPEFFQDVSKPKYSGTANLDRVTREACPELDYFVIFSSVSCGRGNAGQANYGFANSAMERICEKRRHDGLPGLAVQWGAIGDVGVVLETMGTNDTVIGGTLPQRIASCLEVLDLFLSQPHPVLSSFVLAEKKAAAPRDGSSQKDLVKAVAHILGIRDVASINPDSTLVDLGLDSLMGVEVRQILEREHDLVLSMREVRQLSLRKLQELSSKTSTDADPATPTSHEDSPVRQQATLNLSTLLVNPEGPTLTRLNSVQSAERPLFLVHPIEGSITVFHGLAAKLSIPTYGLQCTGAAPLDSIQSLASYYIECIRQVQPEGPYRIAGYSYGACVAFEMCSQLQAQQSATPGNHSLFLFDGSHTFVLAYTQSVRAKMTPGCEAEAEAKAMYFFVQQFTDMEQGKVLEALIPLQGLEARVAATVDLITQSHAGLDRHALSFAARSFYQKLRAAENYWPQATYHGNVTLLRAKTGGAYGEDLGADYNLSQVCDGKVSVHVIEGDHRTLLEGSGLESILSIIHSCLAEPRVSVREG

Cc1sc2ncnc(NC3CCN(Cc4ccccc4)C3)c2c1C (racemic) [HS-106, N-(1-benzylpyrrolidin-3-yI)-5,6-dimethylthieno[2,3-d]pyrimidin-4-amine]
median survival [1]: 63 days
half-life (in vivo; T1/2 tumor tissue): 65.71 ± 0.32 min
half-life (in vivo; ip, T1/2 kidney, 15 mg/kg IP): 9.9 ± 0.01 min
half-life (in vivo; ip, T1/2 liver, 15 mg/kg IP): 9.84 ± 0.09 min
half-life (in vivo; ip, T1/2 plasma, 15 mg/kg IP): 9.81 ± 0.02 min
elution of FASN from Cibacron blue resin (hit strength / selectivity) (FASN): selectively elutes FASN
